Reference: patent US7427599B2, “Biologically active peptide comprising Tyrosyl-seryl-valine(YSV)” (CMS Peptides Patent Holding Company Limited, priority 2003, dated 2008)
Marks after values point to notes of the source that are not given here.

Legend:
[1] = test system: A549 human pulmonary carcinoma; experiment: A549 human pulmonary carcinoma xenograft in nude mice; type: in vivo, BALB/c (nu/nu) athymic nude mice; conditions: 20 mg/kg/day i.p., 40 days
Protocol: Healthy BALB/c (nu/nu) athymic nude mice (SPF, 4-5 weeks old, weighting 18-22 g) were purchased from Shanghai Tumor Academe of China Medical Academy of Science. In the first experiment, female was used. In the second experiment, male was used.
Select A549 human pulmonary carcinoma xenografts of diameter longer than 1 cm with good growth on nude mice. Aseptically excise the tumor mass, cut into pieces of 2-4 mm^3 and submerged in RPMI1640. Pulmonary carcinoma nude mice model was prepared by transplanting the tumor mass hypodermally to the back of healthy nude mice near to the neck via an incision at the ventral thorax.
The nude mice bearing A549 xenografts were randomly divided into groups of: saline control (0.2 ml/day), YSV groups of different dosages, and Cy control (0.2 mg/kg/day). The test substances were dissolved in 0.2 ml saline and administered intraperitoneally to the mice starting from the day after the transplantation, once per day for 40 consecutive days.
The general condition of the mice was observed daily. The mice were weighed every 3-4 days and the volume of the tumor was measured:
V=(⅙)πXYZ, where X, Y, and Z were the diameters of the tumor on the 3 planes.
The day after the last injection, the tumors were excised, weighted, and the volume measured. The tumors were examined for signs of necrosis. Tumor inhibition index=(average tumor weight of saline group−average tumor weight of test group)/average tumor weight of saline group×100%)
Statistical analysis was performed with SPSS software using one-way ANOVA analysis.

[2] = test system: melanoma B16; experiment: Growth of C57BL/6 mice-transplanted melanoma B16; type: in vivo; conditions: 20 mg/kg/day intraperitoneal, 20 consecutive days
Protocol: B16 cells were maintained in RPMI-1640 medium with 10% FBS at 37° C., 5% CO2. Mouse B16 melanoma culture at log phase was adjusted to 2.5×10^6/ml with Hank's solution. 0.2 ml of this was subcutaneously injected to the right axilla of healthy C57 BL/6 mice to form the melanoma mice model. […] From the next day after the tumor implantation, the general conditions of the mice and the growth of the tumor were observed daily. On the next day after the last test substance administration, the tumors were extirpated and the weights of tumor were measured. […] The results were presented as arithmetic mean ±SD. Statistical analysis was performed using the ANOVA test of the SPSS software.

For `O=P1(N(CCCl)CCCl)NCCCO1` (centres unmarked) [Cyclophosphamide, reference compound], the “Tumor inhibition index (%)” value ([1]; experiment 1, female nude mice) was 39.8%, the “Tumor volume (cm^3)” value ([1]; experiment 1, female nude mice, saline 1.87 ± 1.10) was 1.02 ± 0.47* cm^3 and the “Tumor weight” value ([1]; experiment 1, female nude mice, saline 2.49 ± 1.02) was 1.50 ± 0.75 g. The “Tumor inhibition index (%)” value ([1]; experiment 2, male nude mice) was 51.9%, the “Tumor volume (cm^3)” value ([1]; experiment 2, male nude mice, saline 1.34 ± 0.69) was 0.49 ± 0.34* cm^3 and the “Tumor weight” value ([1]; experiment 2, male nude mice, saline 1.51 ± 0.79) was 0.73 ± 0.42 g. For the same compound, the “The Inhibition rate (%)” value [2] was 81.5% and the “Tumor weight” value ([2]; saline 2.64 ± 0.68) was 0.49 ± 0.68 g.
